According to the NIST ThermoML archive (doi:10.1021/acs.jced.6b00120):

Assay: xn = mol fraction of the nth substance listed
Details: Gas, Buoyancy - hydrostatic balance with magnetic suspension - two sinkers, x1 = 0.05049

[Ar] [argon] + O=C=O
Details | mass density [kg/m3]
273.15 K, 526.54 kPa | 10.5097
273.15 K, 1045.7 kPa | 21.6518
273.15 K, 2054.6 kPa | 46.254
273.15 K, 2521.6 kPa | 59.4639
273.15 K, 2948.2 kPa | 72.995
283.15 K, 487.17 kPa | 9.32016
283.15 K, 1034 kPa | 20.4562
283.15 K, 2045.6 kPa | 43.428
283.15 K, 3054.1 kPa | 70.7119
283.15 K, 4058.4 kPa | 105.393
293.15 K, 501.22 kPa | 9.23865
293.15 K, 1009.9 kPa | 19.1313
293.15 K, 2033.5 kPa | 40.9568
293.15 K, 3031.1 kPa | 65.5032
293.15 K, 4032.7 kPa | 95.0463
293.15 K, 5045.2 kPa | 133.561
293.15 K, 5530.5 kPa | 157.768
308.15 K, 493.91 kPa | 8.62503
308.15 K, 996.02 kPa | 17.7876
308.15 K, 2002.5 kPa | 37.5504
308.15 K, 3004.5 kPa | 59.5083
308.15 K, 4005.8 kPa | 84.4871
308.15 K, 5012.9 kPa | 113.924
308.15 K, 6005.3 kPa | 149.364
308.15 K, 6991.8 kPa | 195.441
308.15 K, 7418.4 kPa | 221.117
308.15 K, 7793.4 kPa | 248.529
323.15 K, 521.21 kPa | 8.65936
323.15 K, 1030.2 kPa | 17.4463
323.15 K, 2009.8 kPa | 35.3997
323.15 K, 3012.4 kPa | 55.4385
323.15 K, 4030.3 kPa | 77.9178
323.15 K, 5045.6 kPa | 103.062
323.15 K, 6032.4 kPa | 130.908
323.15 K, 7032.7 kPa | 163.762
323.15 K, 8023.8 kPa | 202.754
323.15 K, 8533.5 kPa | 226.233
323.15 K, 8988 kPa | 249.635
